In patent publication US8959984B2, “Proteome-wide quantification of small molecule binding to cellular target proteins” (priority 2007, dated 2015):
Like-named read-outs stand apart in the source and are kept apart here.

Columns and labels:
[1] = target: T1, hydroxyacyl Coenzyme A dehydrogenase, type II isoform 1 (Homo sapiens, UniProt Q99714); test: binding to immobilized V16742 (IVA1/IVA2, HeLa lysate, MS)
T1 construct: endogenous in cells; host or cells: HeLa S3
T1 sequence (Q99714 1-261): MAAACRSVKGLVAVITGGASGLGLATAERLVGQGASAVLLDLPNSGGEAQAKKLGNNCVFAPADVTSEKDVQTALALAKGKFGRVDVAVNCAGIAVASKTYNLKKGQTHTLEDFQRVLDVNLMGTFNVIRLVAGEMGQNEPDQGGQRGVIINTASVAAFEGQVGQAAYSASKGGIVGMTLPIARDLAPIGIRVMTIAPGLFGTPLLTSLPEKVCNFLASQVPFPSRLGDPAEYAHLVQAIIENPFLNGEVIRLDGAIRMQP

PITSLRE = test: as above; design: species or system human
[2] = target: T2, Testis expressed sequence 264 protein precursor (Homo sapiens, UniProt Q9Y6I9); test: as above
T2 construct: endogenous in cells; host or cells: HeLa S3
T2 sequence (Q9Y6I9 1-313): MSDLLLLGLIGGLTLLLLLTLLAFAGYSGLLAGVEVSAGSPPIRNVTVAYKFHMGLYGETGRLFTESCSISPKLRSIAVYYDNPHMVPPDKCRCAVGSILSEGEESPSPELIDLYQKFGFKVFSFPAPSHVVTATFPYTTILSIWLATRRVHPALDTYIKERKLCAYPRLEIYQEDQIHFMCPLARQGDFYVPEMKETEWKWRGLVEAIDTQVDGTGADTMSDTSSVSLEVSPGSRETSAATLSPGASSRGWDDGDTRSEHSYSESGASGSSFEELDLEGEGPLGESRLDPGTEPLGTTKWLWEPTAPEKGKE

NT5DC1 (IPI00177965) = target: T3, NT5DC1 (IPI00177965) (Homo sapiens, UniProt Q5TFE4); test: binding to VI16742 beads (HeLa lysate, SILAC MS)
T3 construct: endogenous in cells; host or cells: HeLa S3 cell lysate
T3 sequence (Q5TFE4 1-455): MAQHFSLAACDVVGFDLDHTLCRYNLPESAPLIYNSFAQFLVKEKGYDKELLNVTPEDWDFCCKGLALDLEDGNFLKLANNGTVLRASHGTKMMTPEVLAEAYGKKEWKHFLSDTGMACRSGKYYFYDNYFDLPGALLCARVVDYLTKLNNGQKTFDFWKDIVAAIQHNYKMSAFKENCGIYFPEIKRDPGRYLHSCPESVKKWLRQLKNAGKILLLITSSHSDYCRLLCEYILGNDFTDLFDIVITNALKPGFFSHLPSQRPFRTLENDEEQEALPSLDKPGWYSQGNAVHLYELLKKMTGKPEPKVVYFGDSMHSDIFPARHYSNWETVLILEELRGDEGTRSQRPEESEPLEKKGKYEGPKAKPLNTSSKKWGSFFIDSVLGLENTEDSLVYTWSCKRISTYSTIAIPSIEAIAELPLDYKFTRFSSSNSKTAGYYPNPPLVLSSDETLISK

CK1e = CK1e (Homo sapiens, UniProt P49674); test: binding to immobilized V16742 (IVA1/IVA2, HeLa lysate, MS)
Protocol: Using the three populations of SILAC-labelled cells and the three different inhibitor resins, two parallel experiments termed as IVA1 (In Vitro Association, Setting 1) and IVA2 (In Vitro Association, Setting 2) were performed. […] In IVA2, SILAC encoded HeLa cells lysates were subjected to two parallel rounds of consecutive affinity purification at the highest ligand density where the supernatant left behind after the first IVA was used for the second round of IVA. An additional incubation of Hela cell lysate with control beads devoid of immobilized inhibitor was also performed to distinguish background binders.
A common IPI identifier template was assigned to peptides based on the MASCOT html-output file for the IVA2 setting in first experiment. The proteins hits identified based on unique peptides were filtered for mass error and MASCOT score. Eventually, the hits identified in both first and second IVA2 experiments were quantified for IVA2 setting of first experiment by MSQuant. […] A next round of sorting was done to filter out protein hits that are less than 50% enriched in the IVA second round compared to IVA first round. This is because at enrichment below 50%, there could be significant errors in deducing kd values for the corresponding targets. […] The same set of targets was also quantified in IVA2 and IVA1 settings of an independent second experiment.

[3] = target: p38a (MAPK14, IPI00221141) (Homo sapiens, UniProt Q16539); test: gefitinib competition against AX14596 beads (HeLa lysate, SILAC MS); assay type: binding
[4] = average of two experiments, read-out: Kd Avg

Sequence of CK1e (P49674 whole entry): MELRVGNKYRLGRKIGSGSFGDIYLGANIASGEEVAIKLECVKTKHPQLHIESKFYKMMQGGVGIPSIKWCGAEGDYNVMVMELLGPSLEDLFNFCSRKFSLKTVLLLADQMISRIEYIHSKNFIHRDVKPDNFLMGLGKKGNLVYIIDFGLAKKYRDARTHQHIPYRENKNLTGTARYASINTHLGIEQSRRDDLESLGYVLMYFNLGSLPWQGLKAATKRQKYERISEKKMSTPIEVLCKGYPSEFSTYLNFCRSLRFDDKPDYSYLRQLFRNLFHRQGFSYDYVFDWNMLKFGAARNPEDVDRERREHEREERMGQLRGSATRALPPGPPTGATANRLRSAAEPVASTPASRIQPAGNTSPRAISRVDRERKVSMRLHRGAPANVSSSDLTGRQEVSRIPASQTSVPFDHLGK
Sequence of p38a (MAPK14, IPI00221141) (Q16539 1-360 isoform Q16539-2): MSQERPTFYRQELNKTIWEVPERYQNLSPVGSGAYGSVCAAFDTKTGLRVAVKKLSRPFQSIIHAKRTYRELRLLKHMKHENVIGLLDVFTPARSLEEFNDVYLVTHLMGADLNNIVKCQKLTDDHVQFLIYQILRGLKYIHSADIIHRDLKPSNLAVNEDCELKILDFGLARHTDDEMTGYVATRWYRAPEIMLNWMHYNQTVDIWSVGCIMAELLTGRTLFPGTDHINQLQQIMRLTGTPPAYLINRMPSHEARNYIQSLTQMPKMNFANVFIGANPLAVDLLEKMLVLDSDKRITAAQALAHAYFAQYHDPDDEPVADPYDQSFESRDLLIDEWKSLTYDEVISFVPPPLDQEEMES

CC(C)n1c(=O)ccc2cnc(Nc3ccc(OCCN)cc3)nc21 [V16742]
Percent bound at various 16742 conc ([1]; Experiment 1, 1.87 μM 16742): 4.41% | Percent bound at various 16742 conc ([1]; Experiment 1, 8.74 μM 16742): 4.37% | Percent bound at various 16742 conc ([1]; Experiment 1, 52 μM 16742): 62.08% | Kd ([1]; Experiment 1, read-out: Kd): 42.7 µM | Percent bound at various 16742 conc ([1]; Experiment 2, 1.87 μM 16742): 8.75% | Percent bound at various 16742 conc ([1]; Experiment 2, 8.74 μM 16742): 10.79% | Percent bound at various 16742 conc ([1]; Experiment 2, 52 μM 16742): 41.03% | Kd ([1]; Experiment 2, read-out: Kd): 72.8 µM | Kd [1, 4]: 57.7 µM | Percent bound at various 16742 conc (PITSLRE; Experiment 1, 1.87 μM 16742): 1.13% | Percent bound at various 16742 conc (PITSLRE; Experiment 1, 8.74 μM 16742): 12.03% | Percent bound at various 16742 conc (PITSLRE; Experiment 1, 52 μM 16742): 49.06% | Kd (PITSLRE; Experiment 1, read-out: Kd): 56.1 µM | Percent bound at various 16742 conc (PITSLRE; Experiment 2, 1.87 μM 16742): 2.00% | Percent bound at various 16742 conc (PITSLRE; Experiment 2, 8.74 μM 16742): 4.78% | Percent bound at various 16742 conc (PITSLRE; Experiment 2, 52 μM 16742): 46.71% | Kd (PITSLRE; Experiment 2, read-out: Kd): 66.7 µM | Kd (PITSLRE; [4]): 61.4 µM | Percent bound at various 16742 conc ([2]; Experiment 1, 1.87 μM 16742): 2.22% | Percent bound at various 16742 conc ([2]; Experiment 1, 8.74 μM 16742): 2.55% | Percent bound at various 16742 conc ([2]; Experiment 1, 52 μM 16742): 51.05% | Kd ([2]; Experiment 1, read-out: Kd): 60 µM | Percent bound at various 16742 conc ([2]; Experiment 2, 1.87 μM 16742): 2.11% | Percent bound at various 16742 conc ([2]; Experiment 2, 8.74 μM 16742): 1.91% | Percent bound at various 16742 conc ([2]; Experiment 2, 52 μM 16742): 24.69% | Kd ([2]; Experiment 2, read-out: Kd): 165 µM | Kd [2, 4]: 113 µM | rAVERAGE (CTRL/1 INC) (NT5DC1 (IPI00177965); control beads vs first incubation): 0.07 | Ki (NT5DC1 (IPI00177965); immobilized VI16742): 94.8 µM | rAVERAGE (2 INC/1 INC) (NT5DC1 (IPI00177965); second vs first incubation): 0.65

CC(C)n1c(=O)ccc2cnc(Nc3ccc(OCCN)cc3)nc21 [compound 16742]
Kd (CK1e): 13 µM | Percent bound at 1.87 μM 16742 conc (CK1e; CK1e, EXPERIMENT 1): 6.91% | Percent bound at 8.74 μM 16742 conc (CK1e; CK1e, EXPERIMENT 1): 34.02% | Percent bound at 52 μM 16742 conc (CK1e; CK1e, EXPERIMENT 1): 79.64% | Percent bound at 1.87 μM 16742 conc (CK1e; CK1e, EXPERIMENT 2): 7.41% | Percent bound at 8.74 μM 16742 conc (CK1e; CK1e, EXPERIMENT 2): 37.16% | Percent bound at 52 μM 16742 conc (CK1e; CK1e, EXPERIMENT 2): 88.21% | Kd (CK1e; Kd, CK1e): 14.5 µM | Kd (CK1e; Kd, CK1e, EXPERIMENT 1): 16.1 µM

COc1cc2ncnc(Nc3ccc(F)c(Cl)c3)c2cc1OCCCN1CCOCC1 [gefitinib]
rAVERAGE (10 nM/0 nM Gef.) [3]: 0.88 | rAVERAGE (100 nM/0 nM Gef.) [3]: 0.97 | rAVERAGE (1000 nM/0 nM Gef.) [3]: 0.97 | rAVERAGE (10000 nM/0 nM Gef.) [3]: 0.64
